Measurements: patent publication US20250214966A1, “Crystalline Salt Form Of A SHP2 Inhibitor” (Array BioPharma Inc., priority 2022, published 2025)
Counter-ions that a name gives are not always drawn. Like-named read-outs stand apart in the source and are kept apart here. Each block holds one molecule with its values, some of them ahead of it.

How the values were obtained:
Type in all cases: physicochemical
[1] = Thermal analysis TGA/DSC (Tables 12 and 13); settings: 10° C./minute heating rate
Protocol: Thermogravimetric Analysis (“TGA”) (Table 12): Thermogravimetric analysis was conducted using a Discovery TGA (TA instruments) thermogravimetric analyzer. Samples of approximately 10 mg were weighed into aluminum pans and heated from ambient to 300° C. at 10° C./minute heating rate under nitrogen purge (10 mL/min for both sample chamber and balance).
Differential Scanning Calorimetry (“DSC”) (Table 12): DSC measurements were performed with Discovery DSC (TA instruments) equipped with a refrigerated cooling accessory. All the experiments were performed in standard/Tzero aluminum pans. The cell constant was determined using indium and temperature calibration was performed using indium and tin as standards. All the measurements were done under continuous dry nitrogen purge (50 mL/min). Approximately 1-5 mg of solid sample was weighed into a Tzero aluminum pan, sealed non-hermetically and heated from 0° C. to 250° C. at 10° C./min heating rate. The experimental data were analyzed using commercially available software (TA Universal Analysis 2000/Trios software, TA Instruments).
TGA/DSC (Table 13): A Simultaneous DSC/TGA instrument was used for the thermal analysis. Approximately 3.2 mg of the API was placed in an aluminum Tzero DSC pan was loaded into the instrument via autosampler. The sample was equilibrated to 35° C. in the instrument prior to analysis and was ramped to 400° C. at a ramp rate of 10° C./min. Dry nitrogen gas from the in-house supply was used.

[2] = Dynamic vapor sorption, hygroscopicity (Tables 12 and 13); settings: DVS
Protocol: Dynamic Vapor Sorption (“DVS”) (Table 12): The microbalance was calibrated using a 100 mg standard weight. The relative humidity sensor was calibrated at 5.0, 11.3, 32.8, 52.8, 75.3, and 84.3% RH (25° C.) using saturated salt solutions, as well as 80% RH (25° C.) using polyvinylpyrrolidone. 8-10 mg of the powder sample was placed in the platinum sample pan. There is no drying step with this method. The RH is first maintained at 30% RH, then decreased to 10% RH, and then 3% RH using the criteria of moving on when the weight change of the sample was <0.001 wt % in 5 min or after reaching a maximum equilibration time of 60 minutes. […] Again, the attainment of equilibrium was assumed when the weight change of the sample was <0.001 wt % in 5 min or by a maximum equilibration time of 120 minutes.
DVS (Table 13): Water sorption and desorption were analyzed with a DVS-Resolution. The microbalance is calibrated with a 100 mg standard weight on a monthly basis. About 5 mg of API was added to a translucent sample pan and placed inside chamber A of the DVS-Resolution. Percent relative humidity was held at 0% for 1 hour, and increased to 90% in 10% increments, then ramped back to 0% in 10% increments.

[3] = Solubility in buffers, HPLC of mother liquors (Tables 12 and 13); settings: for solubility at 25 h: 25 °C, thermodynamic from solid, read-out: Solubility Concentration
Protocol: Upon addition of the buffer solutions, the samples were vortexed. The samples were rotated at 40° C. for 8 hours, 15° C. for 5 hours, and 25° C. for 12 hours in an Envirogenie thermomixer. After the thermomixing cycle, the slurries were isolated by centrifugation filtration and the isolated mother liquors were analyzed by HPLC.
HPLC method (Tables 12 and 13): An Agilent 1290 UPLC instrument was used with a Waters XSelect HSS T3 Column (100 angstrom, 4.6×150 mm, 5 μm). The column temperature was set to 20° C., the UV wavelength set to 254 nm, the injection volume was 10 μL, with a flow rate of 1.0 mL/min. 10 mM Ammonium acetate adjusted to pH 4.8 was used as a mobile phase A, and acetonitrile was used as mobile phase B. The gradient method was set up to achieve 15% mobile phase B at 0 minutes, 95% mobile phase B at 17 minutes—held until 22 minutes, 15% mobile phase B at 22.1 minutes—held until 28 minutes.

- Decomposition Onset (° C.) [1]: ~180 °C
- Hygroscopity [2]: not hygroscopic
- Hygroscopity, weight gain ([2]; up to 90% relative humidity): 0.9%
- solubility at 25 h ([3]; Water, Final pH 5.01, Final XRD Succinate Form 1): 8180 µg/mL
- solubility at 25 h ([3]; pH 3 buffer, aqueous buffer, pH 3, Final pH 4.5, Final XRD Succinate Form 1): 4220 µg/mL
- solubility at 25 h ([3]; pH 4 acetate buffer, aqueous buffer, pH 4, Final pH 4.16, Final XRD Insufficient solids): 6400 µg/mL
- solubility at 25 h ([3]; pH 5 buffer, aqueous buffer, pH 5, Final pH 5.08, Final XRD Succinate Form 1): 4440 µg/mL
- solubility at 25 h ([3]; pH 6 phosphate buffer, aqueous buffer, pH 6, Final pH 5.37, Final XRD Freebase Form 1): 597 µg/mL
- solubility at 25 h ([3]; pH 7 buffer, aqueous buffer, pH 7, Final pH 6.81, Final XRD Insufficient solids): 17.1 µg/mL
- solubility at 25 h ([3]; pH 8 buffer, aqueous buffer, pH 8, Final pH 7.78, Final XRD Freebase Form 1): 2.66 µg/mL
- solubility at 25 h ([3]; pH 9 buffer, aqueous buffer, pH 9, Final pH 9.01, Final XRD Freebase Form 1): 0.18 µg/mL
- solubility at 25 h ([3]; pH 10 buffer, aqueous buffer, pH 10, Final pH 9.82, Final XRD Freebase Form 1): 0.17 µg/mL
SMILES: Nc1nccc(Sc2cnc(N3CCC4(CC3)Cc3ccccc3[C@H]4N)nn2)c1Cl [Example 3, (S)-1′-(6-((2-amino-3-chloropyridin-4-yl)thio)-1,2,4-triazin-3-yl)-1,3-dihydrospiro[indene-2,4′-piperidin]-1-amine Mono Succinate Salt Form 1]

- Decomposition Onset (° C.) [1]: ~240 °C
- Dehyradtion Onset (° C.) [1]: ~72 °C
- Solubility Concentration ([3]; Water, Final pH 9.19, Final XRD Additional peak at 8°): 0.24 µg/mL
- Solubility Concentration ([3]; pH 3, Final pH 4.51, Final XRD Freebase Form 1): 2044.85 µg/mL
- Solubility Concentration ([3]; pH 4, Final pH 5.12, Final XRD Freebase Form 1): 301.79 µg/mL
- Solubility Concentration ([3]; pH 5, Final pH 6.06, Final XRD Freebase Form 1): 58.53 µg/mL
- Solubility Concentration ([3]; pH 6, Final pH 6.95, Final XRD Freebase Form 1): 32.25 µg/mL
- Solubility Concentration ([3]; pH 7, Final pH 8.19, Final XRD Freebase Form 1): 10.05 µg/mL
- Solubility Concentration ([3]; pH 8, Final pH 9.13, Final XRD Insufficient solids): 0.56 µg/mL
- Solubility Concentration ([3]; pH 9, Final pH 10.2, Final XRD Insufficient solids): 0.26 µg/mL
- Solubility Concentration ([3]; pH 10, Final pH 3.94, Final XRD Insufficient solids): 0.45 µg/mL
SMILES: Nc1nccc(Sc2cnc(N3CCC4(CC3)Cc3ccccc3[C@H]4N)nn2)c1Cl.Nc1nccc(Sc2cnc(N3CCC4(CC3)Cc3ccccc3[C@H]4N)nn2)c1Cl.O [Example 2, (S)-1′-(6-((2-amino-3-chloropyridin-4-yl)thio)-1,2,4-triazin-3-yl)-1,3-dihydrospiro[indene-2,4′-piperidin]-1-amine Free Base Hemihydrate (Form 1)]
- Hygroscopity [2]: Non-hygroscopic at 25 °C and exhibits less
